The test system of experiment [1] is melanoma cells from B16 mice. Description: Effect on melanin content (melanin synthesis) in melanoma cells from B16 mice. In kind it is cell-based. To be noted: Mus musculus, 72 h, 3 days, n = 4, read-out: The inhibitory rate for melanin synthesis. As to the method: The experiments were: melanoma cells from B16 mice (purchased from Shanghai Fuxiang Biotechnology Co., Ltd.) were adjusted with DMEM cell culture medium containing 10% fetal bovine serum, 100 U/mL penicillin and 100 U/mL streptomycin to reach a density of 1×10^5/mL, and were seeded into 6-well cell culture plates (3 mL per well). After cultured at 37° C., 5% CO2 for 24 h, the test sample (Example 2) was added. After 3 days, the supernatant was discarded, and the cells were washed with PBS, then added with trypsin to degest the cells for 3 min (0.5 mL per well). Afterwards, 2 mL cell culture medium was added to terminate the digestion reaction, and cells of each group were counted. After centrifugation, the supernatant was discarded, and 0.5 mL of 1 mol/L NaOH solution was added. After vibrated for 1 h, a 1500 r/min centrifugation was conducted for 5 min. 200 μL was respectively taken and transferred to a 96-well cell culture plate, and tested for absorbance at 450 nm via a microplate reader to calculate the inhibitory rate for melanin synthesis. In the experiment, the control wells were added with the same volume amount of PBS as that of the sample. […]
A is the absorbance of the wells containing drug (i.e., sample wells or positive control wells), B is the number of cells in the wells containing drug, C the absorbance of the control wells, D is the number of cells in control wells.

In experiment [2] the target is T1, intracellular tyrosinase in melanoma cells from B16 mice (Mus musculus, UniProt P11344).
T1 construct: B16 melanin cells were adjusted with DMEM cell culture medium; endogenous in cells; host or cells: B16 mouse melanoma cells
T1 sequence (P11344 19-533): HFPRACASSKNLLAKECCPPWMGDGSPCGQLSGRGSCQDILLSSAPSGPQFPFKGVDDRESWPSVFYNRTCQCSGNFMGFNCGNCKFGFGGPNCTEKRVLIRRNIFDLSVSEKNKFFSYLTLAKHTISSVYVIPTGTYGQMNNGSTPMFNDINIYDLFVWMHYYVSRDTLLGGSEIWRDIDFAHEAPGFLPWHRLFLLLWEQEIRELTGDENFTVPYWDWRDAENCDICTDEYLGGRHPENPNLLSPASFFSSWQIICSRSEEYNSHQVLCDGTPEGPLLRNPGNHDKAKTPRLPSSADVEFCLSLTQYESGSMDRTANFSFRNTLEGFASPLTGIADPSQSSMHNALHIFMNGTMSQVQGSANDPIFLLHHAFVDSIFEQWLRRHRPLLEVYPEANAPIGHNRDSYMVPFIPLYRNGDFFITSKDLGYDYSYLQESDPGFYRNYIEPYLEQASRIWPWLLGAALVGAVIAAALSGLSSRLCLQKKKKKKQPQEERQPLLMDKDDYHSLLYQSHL
Description: Effect on intracellular tyrosinase activity in melanoma cells from B16 mice. Type of experiment: cell-based. To be noted: 3 days, n = 4, read-out: Inhibitory rate for tyrosinase activity. As to the method:
The experiments were: B16 melanin cells were adjusted with DMEM cell culture medium containing 10% fetal bovine serum, 100 U/mL penicillin and 100 U/mL streptomycin to reach a density of 1×10^5/mL, and were seeded into 6-well cell culture plates (3 mL per well). After cultured at 37° C., 5% CO2 for 24 h, the test sample (Example 2) was added. After 3 days, the supernatant was discarded, and the cells were washed with PBS for twice. After each well was added 180 μL PBS solution containing 1% (v/v) Triton X-100, the cells were subjected to ultrasonication under ice bath, then each well was added 20 μL 10 mmol/L of L-DOPA, incubated at 37° C. for 60 min. A 1500 r/min centrifugation was conducted for 5 min. 100 μL was respectively taken and transferred to a 96-well cell culture plate, and tested for absorbance at 492 nm via a microplate reader to calculate the inhibitory rate for intracellular tyrosinase activity. The control wells were added with the same volume amount of PBS as that of the sample. The positive control employs arbutin, at an effect concentration of 200 μM. Inhibition rate=(1−A/B)×100%
wherein A is the mean absorbance of the wells containing drug (i.e., sample wells or positive control wells), B is the mean absorbance of the control wells.

For `OC[C@H]1O[C@@H](Oc2ccc(O)cc2)[C@H](O)[C@@H](O)[C@@H]1O` [Arbutin], in experiment [1], the inhibition at 200 µM stood at 46.7 ± 10%. The inhibition at 400 µM in experiment [2] worked out at 49 ± 9.44%.

Values taken from patent US10098372B2, “Whitening composition and the use thereof” (INFINITUS (CHINA) COMPANY LTD, priority 2015, dated 2018).
